Reference: paper PMC9721025, “Pharmacokinetic study of the main components of Tanreqing capsules and Tanreqing injections in beagles by liquid chromatography–tandem mass spectrometry” (Chinese Medicine, 2022)
Where two headings read alike, the source gives them in different places.

Columns and labels:
[1] = Pharmacokinetics in beagles, multiple-dose regimen (once per day for 7 days) of TRQI or TRQC, plasma LC-MS/MS; format: in vivo; conditions: beagle, dog
Experimental: (§1) 100 μL plasma sample was drawn and transferred to 1.5 mL centrifuge tube prior to 300 μL protein precipitant (3:1 [v/v] methanol/acetonitrile, containing 0.1% formic acid and 100 ng/mL IS) was added, and then the sample was vortex-mixed for 3 min. The mixture was centrifuged at 20,000 ×g for 10 min, and 100 μL supernatant was transferred to the injection vial and analyzed directly by LC–MS/MS.
(§2) This study was carried out in six beagles (three males and three females, 9.0–12.0 kg each), that were purchased from Junda Pet Hospital (Shanghai, China). This experimental protocol was approved by the Experimental Animal Ethics Committee of the Naval Military Medical University (Shanghai, China).
After the end of the single-dose experiment, the dogs in group one were given 0.5 mL/kg injection of TRQI once per day for 7 days following the wash out period, and the dogs in group two were given 0.09 g/kg TRQC once per day for 7 days. After the seventh administration, blood samples were collected at 0, 10, 20, and 40 min and then at 1, 1.5, 2, 2.5, 3, 4, 6, 8, 12, and 24 h (a total of 14 time points) and were processed as described in “Single-dose regimen” section. The resulting plasma samples were used to determine the steady-state plasma concentration of TRQI and TRQC. A crossover study was again carried out in both groups, as described in “Single-dose regimen” section, after a 7-day washing period.
(§3) All data obtained were analyzed using Drug and Statistics (DAS) 2.0 software (Chinese Society of Pharmacology), and a non-compartment analysis was used to calculate plasma pharmacokinetic parameters. The principal components of TRQI and TRQC were compared with an analysis of variance (ANOVA) and/or a two-tailed student-t test.

[2] = Tanreqing injection, cited from earlier work
[3] = Stability of analytes in dog plasma (QC samples); format: in vitro ADME
Experimental: The stock solutions of all analytes were further mixed and diluted with methanol/water (10:90, v/v) solution to prepare the working solutions. […] The QC samples were stored in a refrigerator at – 80 °C until retrieval (see Additional file 1). The stability, which includes short-term stability (6 h at room temperature), long-term stability (− 80 °C for 30 days in the refrigerator), and freeze–thaw stability (three cycles from − 80 °C to room temperature), were assessed using QC samples at three concentration levels in three replicates. […] Similarly, there were no obvious effects on the analysis results of the samples with respect to short-term stability or long-term storage.

[4] = Pharmacokinetics in beagles, single-dose regimen of TRQI (i.v.) or TRQC (oral), plasma LC-MS/MS; format: in vivo, beagle; conditions: for AUC(0-t) / Cmax / Tmax / half-life: beagle, dog, plasma; for AUC(0-t): read-out: AUC0–24 h; for Cmax / Tmax / half-life: mean of six beagles
Experimental: as §1, §2
The six healthy beagles were divided into two groups: beagles 1–3 were all male and were assigned to the first group, and beagles 4–6 were all females and assigned to the second group. The two-cycle, crossover study was designed with a 7-day wash out period. For the single-administration process, the dogs in the first group were injected intravenously with 0.5 mL/kg TRQI (one-third of the normal daily dose), and blood samples were collected at 0, 5, 10, 15, 20, 30, and 45 min and then at 1, 2, 4, 6, 8, 12, and 24 h (a total of 14 time points) after injection. For each blood sample, 1 mL of blood was collected from the forelimb vein in heparin-treated tubes. The dogs in the second group were orally administrated 0.09 g/kg TRQC (one-third of the normal daily dose, and blood samples were collected in the same manner at 0, 10, 20, and 40 min and then at 1, 1.5, 2, 2.5, 3, 4, 6, 8, 12, and 24 h (a total of 14 time points). All blood samples were centrifuged at 4000 × g for 5 min, and each supernatant was collected and aliquoted. After a 7-day wash out period, the dogs in each group were administrated the other Tanreqing formulation in a crossover design, and blood samples were collected and processed in the same way.
as §3

[5] = both sexes, iv, TRQI 0.5 mL/kg once per day for 7 days, mean
[6] = both sexes, po, TRQC 0.09 g/kg once per day for 7 days, mean
[7] = n = 3, high QC: nominal 200 ng/mL baicalin, 1000 ursodeoxycholic acid, 100 chenodeoxycholic acid and chlorogenic acid
[8] = n = 3, low QC: nominal 4 ng/mL baicalin, 20 ursodeoxycholic acid, 2 chenodeoxycholic acid and chlorogenic acid
[9] = n = 3, middle QC: nominal 20 ng/mL baicalin, 100 ursodeoxycholic acid, 10 chenodeoxycholic acid and chlorogenic acid
[10] = both sexes, iv, single i.v. dose of TRQI 0.5 mL/kg
[11] = both sexes, single oral dose of TRQC 0.09 g/kg

`C[C@H](CCC(=O)O)[C@H]1CC[C@H]2[C@@H]3[C@H](O)C[C@@H]4C[C@H](O)CC[C@]4(C)[C@H]3CC[C@]12C` [Chenodeoxycholic acid, chenodeoxycholic acid] showed an AUC(0-inf) ([1]; both sexes, iv, 0.5 mL/kg, TRQI 0.5 mL/kg for 7 days, Mean) of 5030 ng·h/mL, an AUC(0-t) ([1]; both sexes, iv, 0.5 mL/kg, TRQI 0.5 mL/kg for 7 days, Mean, read-out: AUC0–24 h) of 4070 ng·h/mL and a Cmax at 7 days [1, 5] of 968 ng/mL. It also gave a half-life at 7 days [1, 5] of 6.25 h, an AUC(0-inf) ([1]; both sexes, po, 0.09 g/kg, TRQC 0.09 g/kg for 7 days, Mean) of 3710 ng·h/mL and an AUC(0-t) ([1]; both sexes, po, 0.09 g/kg, TRQC 0.09 g/kg for 7 days, Mean, read-out: AUC0–24 h) of 3430 ng·h/mL. It also gave a Cmax at 7 days [1, 6] of 521 ng/mL, a Tmax at 7 days [1, 6] of 4.72 h and a half-life at 7 days [1, 6] of 13.7 h. The AUC(0-inf) ([1]; female, iv, 0.5 mL/kg, TRQI 0.5 mL/kg for 7 days, beagle No. 4) was 6190 ng·h/mL, the AUC(0-t) ([1]; female, iv, 0.5 mL/kg, TRQI 0.5 mL/kg for 7 days, beagle No. 4, read-out: AUC0–24 h) was 669 ng·h/mL and the AUC(0-inf) ([1]; female, iv, 0.5 mL/kg, TRQI 0.5 mL/kg for 7 days, beagle No. 5) was 399 ng·h/mL. The AUC(0-t) ([1]; female, iv, 0.5 mL/kg, TRQI 0.5 mL/kg for 7 days, beagle No. 5, read-out: AUC0–24 h) was 234 ng·h/mL, the AUC(0-inf) ([1]; female, iv, 0.5 mL/kg, TRQI 0.5 mL/kg for 7 days, beagle No. 6) was 138 ng·h/mL and the AUC(0-t) ([1]; female, iv, 0.5 mL/kg, TRQI 0.5 mL/kg for 7 days, beagle No. 6, read-out: AUC0–24 h) was 138 ng·h/mL. The AUC(0-inf) ([1]; female, po, 0.09 g/kg, TRQC 0.09 g/kg for 7 days, beagle No. 4) was 16800 ng·h/mL, the AUC(0-t) ([1]; female, po, 0.09 g/kg, TRQC 0.09 g/kg for 7 days, beagle No. 4, read-out: AUC0–24 h) was 16700 ng·h/mL and the AUC(0-inf) ([1]; female, po, 0.09 g/kg, TRQC 0.09 g/kg for 7 days, beagle No. 5) was 1960 ng·h/mL. For the same compound, the AUC(0-t) ([1]; female, po, 0.09 g/kg, TRQC 0.09 g/kg for 7 days, beagle No. 5, read-out: AUC0–24 h) was 500 ng·h/mL, the AUC(0-inf) ([1]; female, po, 0.09 g/kg, TRQC 0.09 g/kg for 7 days, beagle No. 6) was 761 ng·h/mL and the AUC(0-t) ([1]; female, po, 0.09 g/kg, TRQC 0.09 g/kg for 7 days, beagle No. 6, read-out: AUC0–24 h) was 760 ng·h/mL. It also gave an AUC(0-inf) ([1]; male, iv, 0.5 mL/kg, TRQI 0.5 mL/kg for 7 days, beagle No. 1) of 20000 ng·h/mL, an AUC(0-t) ([1]; male, iv, 0.5 mL/kg, TRQI 0.5 mL/kg for 7 days, beagle No. 1, read-out: AUC0–24 h) of 20000 ng·h/mL and an AUC(0-inf) ([1]; male, iv, 0.5 mL/kg, TRQI 0.5 mL/kg for 7 days, beagle No. 2) of 183 ng·h/mL. It also gave an AUC(0-t) ([1]; male, iv, 0.5 mL/kg, TRQI 0.5 mL/kg for 7 days, beagle No. 2, read-out: AUC0–24 h) of 121 ng·h/mL, an AUC(0-inf) ([1]; male, iv, 0.5 mL/kg, TRQI 0.5 mL/kg for 7 days, beagle No. 3) of 3250 ng·h/mL and an AUC(0-t) ([1]; male, iv, 0.5 mL/kg, TRQI 0.5 mL/kg for 7 days, beagle No. 3, read-out: AUC0–24 h) of 3240 ng·h/mL. For the same compound, the AUC(0-inf) ([1]; male, po, 0.09 g/kg, TRQC 0.09 g/kg for 7 days, beagle No. 1) was 231 ng·h/mL, the AUC(0-t) ([1]; male, po, 0.09 g/kg, TRQC 0.09 g/kg for 7 days, beagle No. 1, read-out: AUC0–24 h) was 195 ng·h/mL and the AUC(0-inf) ([1]; male, po, 0.09 g/kg, TRQC 0.09 g/kg for 7 days, beagle No. 2) was 1930 ng·h/mL. For the same compound, the AUC(0-t) ([1]; male, po, 0.09 g/kg, TRQC 0.09 g/kg for 7 days, beagle No. 2, read-out: AUC0–24 h) was 1900 ng·h/mL, the AUC(0-inf) ([1]; male, po, 0.09 g/kg, TRQC 0.09 g/kg for 7 days, beagle No. 3) was 538 ng·h/mL and the AUC(0-t) ([1]; male, po, 0.09 g/kg, TRQC 0.09 g/kg for 7 days, beagle No. 3, read-out: AUC0–24 h) was 493 ng·h/mL. The t1/2 ([2]; Hu's study) was 1.83 h, the t1/2 ([2]; another study) was 0.55 h and the “Freeze-thaw stability (3 cycles) Mean ± S.D. concentration” value (“Freeze-thaw stability” for short) [3, 7] was 95.70 ± 4.66 ng/mL. For the same compound, the “Long-term stability (30 days at – 80 °C) Mean ± S.D. concentration” value (“Long-term stability” below) [3, 7] was 101.23 ± 5.13 ng/mL, the “Short-term stability (6 h at room temperature) Mean ± S.D concentration” value (“Short-term stability” for short) [3, 7] was 101.57 ± 0.54 ng/mL and the “Freeze-thaw stability” value [3, 8] was 1.97 ± 0.17 ng/mL. For the same compound, the “Long-term stability” value [3, 8] was 1.92 ± 0.22 ng/mL, the “Short-term stability” value [3, 8] was 1.77 ± 0.06 ng/mL and the “Freeze-thaw stability” value [3, 9] was 9.37 ± 0.95 ng/mL. The “Long-term stability” value [3, 9] was 10.10 ± 0.36 ng/mL, the “Short-term stability” value [3, 9] was 9.79 ± 0.78 ng/mL and the “time at which oral absorption reached a peak” value ([4]; TRQC, oral, dogs) was roughly 5 h. The AUC(0-t) ([4]; both sexes, iv, 0.5 mL/kg, single TRQI 0.5 mL/kg, Mean) was 359 ng·h/mL, the Cmax [4, 10] was 120 ng/mL and the Tmax [4, 10] was 1.07 h. It also gave a half-life [4, 10] of 5.67 h, an AUC(0-t) ([4]; both sexes, po, 0.09 g/kg, single TRQCs 0.09 g/kg, Mean) of 553 ng·h/mL and a Cmax [4, 11] of 99.8 ng/mL. It also gave a Tmax [4, 11] of 7.53 h, a half-life [4, 11] of 5.93 h and an AUC(0-t) ([4]; female, iv, 0.5 mL/kg, single TRQI 0.5 mL/kg, beagle No 4) of 89 ng·h/mL. The AUC(0-t) ([4]; female, iv, 0.5 mL/kg, single TRQI 0.5 mL/kg, beagle No 5) was 137 ng·h/mL, the AUC(0-t) ([4]; female, iv, 0.5 mL/kg, single TRQI 0.5 mL/kg, beagle No 6) was 95 ng·h/mL and the AUC(0-t) ([4]; female, po, 0.09 g/kg, single TRQCs 0.09 g/kg, beagle No 4) was 1330 ng·h/mL. It also gave an AUC(0-t) ([4]; female, po, 0.09 g/kg, single TRQCs 0.09 g/kg, beagle No 5) of 126 ng·h/mL, an AUC(0-t) ([4]; female, po, 0.09 g/kg, single TRQCs 0.09 g/kg, beagle No 6) of 1080 ng·h/mL and an AUC(0-t) ([4]; male, iv, 0.5 mL/kg, single TRQI 0.5 mL/kg, beagle No 1) of 1490 ng·h/mL. It also gave an AUC(0-t) ([4]; male, iv, 0.5 mL/kg, single TRQI 0.5 mL/kg, beagle No 2) of 108 ng·h/mL, an AUC(0-t) ([4]; male, iv, 0.5 mL/kg, single TRQI 0.5 mL/kg, beagle No 3) of 238 ng·h/mL and an AUC(0-t) ([4]; male, po, 0.09 g/kg, single TRQCs 0.09 g/kg, beagle No 1) of 104 ng·h/mL. For the same compound, the AUC(0-t) ([4]; male, po, 0.09 g/kg, single TRQCs 0.09 g/kg, beagle No 2) was 257 ng·h/mL and the AUC(0-t) ([4]; male, po, 0.09 g/kg, single TRQCs 0.09 g/kg, beagle No 3) was 421 ng·h/mL.
